Laboratory results published in article PMC12648656, “Palladium(II) Complexes with Noncovalent Interactions with DNA: Solution Speciation Controlled by Solvent Identity, pH, and Concentration” (Inorganic Chemistry, 2025).

Legend:
[1] = Stability in physiological buffers (Tris, phosphate, HEPES) by UV-vis; type: physicochemical
Experimental: The reaction of the metal complexes (2) and (3) with buffer components was followed in an array of DMSO percentages, from 1% to 60% (v/v) DMSO/H2O (pH 7.4) medium. The samples were prepared by dilution of the stock solution of the respective complex in DMSO (5 mM) with 5 mM Tris 1% (v/v) DMSO/H2O or 5 mM phosphate buffers 60% (v/v) DMSO/H2O (pH 7.40 in both cases), reaching a final concentration of 10^–6 to 10^–4 M. The UV–vis spectra of the final samples were followed over time at 37 °C for up to 24 h.

[2] = test system: methicillin-resistant Staphylococcus aureus (ATCC 43300); assay: microbe, parasite or virus in culture; type: cell-based; conditions: S. aureus (MRSA), 18 h, 37 °C
Experimental: (§1) Antibacterial activity was determined for the title compounds in various Gram-negative and Gram-positive bacterial strains, namely Klebsiella pneumoniae, Escherichia coli (ATCC 25922), Staphylococcus aureus (272123), methicillin-resistant Staphylococcus aureus (ATCC 43300), and Enterococcus faecalis (ATCC 29212). The stock solutions of the tested compounds were prepared in DMSO at a 5 mM concentration. […] All stock solutions were diluted in 100 μL of Mueller Hinton Broth, and then two-fold serial dilutions were performed. Then, a 10^–4 dilution of an overnight bacterial culture in 100 μL of medium was added to each well, except for the medium control wells. The highest concentration of the compounds in the tested samples was 100 μM. The plates were incubated at 37 °C for 18 h. After that, the MIC values were determined by visual inspection.

[3] = Spectrophotometric (UV-vis) pH titrations for proton dissociation constants; type: physicochemical; conditions: 60% (v/v) DMSO/H2O
Experimental: Spectrophotometric titrations were applied to study the equilibrium processes (proton dissociation and complex dissociation/formation) in DMSO/H2O mixtures due to the limited aqueous solubility of the compounds. The calibration of the electrode system was performed by strong acid–strong base pH-potentiometric titrations in 30% (v/v) and 60% (v/v) DMSO/H2O solvent mixtures at 25.0 ± 0.1 °C as described in our previous works. , KCl (0.1 M) was the supporting electrolyte to maintain constant ionic strength, which refers to the chloride ion concentration in blood plasma. […] The initial sample volume was 5 mL. Spectrophotometric titrations were performed in the pH range 1.8–12.5 for 30% (v/v) DMSO/H2O medium and 1.8–14.0 for 60% (v/v) DMSO/H2O medium. Prior to the titrations, purified argon was passed through the samples for approximately 10 min to remove CO2 traces, and argon was also passed over the samples during these measurements. The proton dissociation constants were calculated by using the computer program PSEQUAD.

[4] = test system: Colo 205 human colon cancer cell line; assay: In vitro cytotoxicity, MTT; type: cell-based; conditions: Colo 205, 72 h exposure
Experimental: (§2) Cell culture reagents were obtained from Merck, and plasticware was obtained from Sarstedt. Human colon adenocarcinoma cell line Colo 205 (ATCC CCL-222) and MCF7 (ATCC HTB-22) breast cancer cells were purchased from LGC Promochem. Cancer cells were cultured in RPMI 1640 medium supplemented with 10% heat-inactivated fetal bovine serum, 2 mM L-glutamine, and 1 mM sodium pyruvate and buffered with 100 mM HEPES. The cells were incubated at 37 °C in a 5% CO2, 95% air atmosphere and were detached with Trypsin-Versene (EDTA) solution for 5 min at 37 °C.
(§3) The tested ligands were dissolved in DMSO, and the stock solutions (5 mM) were diluted in complete culture medium. Two-fold serial dilutions of compounds were made in 100 μL of the medium, horizontally. The semiadherent colon adenocarcinoma cells were treated with Trypsin-Versene (EDTA) solution. They were adjusted to a density of 1 × 10^4 cells in 100 μL of RPMI 1640 medium and were added to each well, with the exception of the medium control wells. The final volume of the wells containing compounds and cells was 200 μL. The plates containing the cells were incubated at 37 °C for 72 h; at the end of the incubation period, 20 μL of MTT solution (5 mg/mL) was added to each well. After incubation at 37 °C for 4 h, 100 μL of sodium dodecyl sulfate solution (10% in 0.01 M HCl) was added to each well, and the plates were further incubated at 37 °C overnight. Cell growth was determined by measuring the optical density (OD) at 540 and 630 nm with a Multiskan EX plate reader (Thermo Labsystems).
(§4) Curves for the data obtained on cancer cells were fitted by GraphPad Prism software using the sigmoidal dose–response model (comparing variable and fixed slopes). The IC50 values were always obtained from at least three independent experiments.

[5] = test system: MCF7 human breast cancer cell line; assay: In vitro cytotoxicity, MTT; type: cell-based; conditions: MCF7, 72 h exposure
Experimental: as §2, §3, §4

[6] = test system: Escherichia coli (ATCC 25922); assay: Antibacterial MIC, broth dilution; type: cell-based; conditions: E. coli, 18 h, 37 °C
Experimental: as §1

Klebsiella pneumoniae = assay: Antibacterial MIC, broth dilution; type: cell-based; conditions: K. pneumoniae, 18 h, 37 °C
Experimental: as §1

[7] = test system: Staphylococcus aureus (272123); assay: Antibacterial MIC, broth dilution; type: cell-based; conditions: S. aureus, 18 h, 37 °C
Experimental: as §1

[8] = test system: Enterococcus faecalis (ATCC 29212); assay: Antibacterial MIC, broth dilution; type: cell-based; conditions: E. faecalis, 18 h, 37 °C
Experimental: as §1

[9] = n-Octanol/water and n-octanol/Tris buffer shake-flask partitioning; type: physicochemical
Experimental: The distribution coefficient values (D 7.4) of the compounds were determined by the traditional shake-flask method in n-octanol/buffered aqueous solution at pH 7.40 for 5 mM Tris HCl with 0.1 M KCl and at pH 7.4 at 25.0 ± 0.2 °C. The ligand and complexes were dissolved in n-octanol (presaturated by the aqueous buffer) because of the very low aqueous solubility. The aqueous buffer solution and n-octanol ratio was 1:1 due to the expected high lipophilicity of the compounds. First, samples were mixed with vertical rotation (∼20 rpm) for 3 h, and then the two phases were separated by centrifugation at 3000 rpm (∼1000g) for 3 min. After separation, UV–vis spectra of the compounds were recorded in both phases. Spectra of the n-octanol phases were compared to those of the original n-octanol stock solutions.
The distribution coefficient values were also determined using unbuffered water and octanol (also presaturated) with a ratio of 1:1.

## Clc1ccc(N=C2N[N+](=Cc3c[nH]cn3)[Pd-2]3([S]C(Nc4ccc(Cl)cc4)=N[N+]3=Cc3c[nH]cn3)[S]2)cc1 (stereo not shown) [(2), Bis(1H-imidazole-4-carboxaldehyde-4N-p-chlorophenylthiosemicarbazonato)palladium(II)]
[1]; HEPES, pH 7.4, 0.1 M chloride, 60% DMSO
  behaviour in HEPES buffer: formed precipitation
[1]; Tris buffer containing 3% (v/v) DMSO, pH 7.4, 20.0 μM
  time stable in solution, no precipitation: up to 24 h
[1]; Tris buffer, 60% DMSO
  stability after 24 h: decreased the stability
[1]; pH 7.4, 0.1 M chloride, 3% (v/v) DMSO
  behaviour in phosphate buffer: precipitated
[1]; pH 7.4, 0.1 M chloride, 60% (v/v) DMSO, first 10 h
  behaviour in phosphate buffer: major structural changes
[2]
  MIC: > 100 µM
[3]; I = 0.10 M (KCl), 25.0 °C
  pKa1: 2.97 ± 0.02
  pKa2: 8.40 ± 0.02
  pKa3: 11.31 ± 0.01
[3]; same medium
  reduction of proton dissociation constant of step I compared to the ligand: 0.8 logarithm units
  reduction of proton dissociation constant of step II compared to the ligand: 2.7 logarithm units
[4]
  IC50: 11.8 ± 0.35 µM
[5]
  IC50: 1.55 ± 0.03 µM
[6]
  MIC: > 100 µM
Klebsiella pneumoniae
  MIC: > 100 µM
[7]
  MIC: > 100 µM
[8]
  MIC: > 100 µM
[9]; n-octanol/5 mM Tris HCl with 0.1 M KCl, pH 7.40, 25.0 °C
  log D o/t: +2.32 ± 0.16
[9]; n-octanol/pure (unbuffered) water, 1:1
  log D o/w: +1.70 ± 0.06
